Source: PubChem BioAssay AID256 (DTP/NCI, 2004)
Values joined by “and” are separate entries in the source; they are usually repeats but may differ in a detail not shown here. Equal entries are not always repeated. Toxic doses and inconclusive results are not listed.

System: CD2F1 mice, L1210 leukemia ip, survival T/C
Test: NCI In Vivo Anticancer Drug Screen. Data for tumor model L1210 Leukemia (intraperitoneal) in CD2F1 (CDF1) mice
Details: higher = longer survival
In short: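 Implant tumor; dose compound or vehicle; measure endpoint in both groups; report treated divided by control.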

[1] = endpoint: mean survival time, dose: 100.0 mg/kg/injection, schedule: Q04DX003 (ip), vehicle: saline with Tween-80
[2] = endpoint: mean survival time, dose: 200.0 mg/kg/injection, schedule: Q04DX003 (ip), vehicle: saline with Tween-80
[3] = endpoint: mean survival time, dose: 400.0 mg/kg/injection, schedule: Q04DX003 (ip), vehicle: saline with Tween-80
[4] = endpoint: mean survival time, dose: 100.0 mg/kg/injection, schedule: Q01DX001 (ip), vehicle: saline with Tween-80
[5] = endpoint: mean survival time, dose: 200.0 mg/kg/injection, schedule: Q01DX001 (ip), vehicle: saline with Tween-80
[6] = endpoint: mean survival time, dose: 400.0 mg/kg/injection, schedule: Q01DX001 (ip), vehicle: saline with Tween-80
[7] = endpoint: mean survival time, dose: 100.0 mg/kg/injection, schedule: Q04DX003 (ip), vehicle: saline
[8] = endpoint: mean survival time, dose: 200.0 mg/kg/injection, schedule: Q04DX003 (ip), vehicle: saline
[9] = endpoint: mean survival time, dose: 100.0 mg/kg/injection, schedule: Q01DX009 (ip), vehicle: saline with Tween-80
[10] = endpoint: mean survival time, dose: 200.0 mg/kg/injection, schedule: Q01DX009 (ip), vehicle: saline with Tween-80
[11] = endpoint: mean survival time, dose: 400.0 mg/kg/injection, schedule: Q01DX009 (ip), vehicle: saline with Tween-80
[12] = endpoint: mean survival time, dose: 25.0 mg/kg/injection, schedule: Q01DX009 (ip), vehicle: saline with Tween-80
[13] = endpoint: mean survival time, dose: 6.25 mg/kg/injection, schedule: Q01DX009 (ip), vehicle: saline with Tween-80
[14] = endpoint: mean survival time, dose: 12.5 mg/kg/injection, schedule: Q01DX009 (ip), vehicle: saline with Tween-80
[15] = endpoint: mean survival time, dose: 50.0 mg/kg/injection, schedule: Q01DX009 (ip), vehicle: saline with Tween-80

Nc1nc(N)c2nc(CNc3ccc(C(=O)NCCCC(=O)O)cc3)cnc2n1 (tested in a mixture with another compound) was tested, and the T/C (endpoint: mean survival time, dose: 1.0 mg/kg/injection, schedule: Q01DX009 (ip), vehicle: Klucel (hydroxypropylcellulose) (HPC)) was 97 % of control, the T/C (endpoint: mean survival time, dose: 5.0 mg/kg/injection, schedule: Q01DX009 (ip), vehicle: Klucel (hydroxypropylcellulose) (HPC)) was 102 % of control and the T/C (endpoint: mean survival time, dose: 10.0 mg/kg/injection, schedule: Q01DX009 (ip), vehicle: Klucel (hydroxypropylcellulose) (HPC)) was 108 % of control. For the same compound, the T/C (endpoint: mean survival time, dose: 20.0 mg/kg/injection, schedule: Q01DX009 (ip), vehicle: Klucel (hydroxypropylcellulose) (HPC)) was 102 % of control.
With CCCCCCCCCCCc1nc(N)n[nH]1 the T/C [1] was 98 % of control, the T/C [2] was 102 % of control and the T/C [3] was 102 % of control.
For NC(N)=NNc1ccccc1, the T/C (endpoint: mean survival time, dose: 6.25 mg/kg/injection, schedule: Q01DX009 (ip), vehicle: saline) was 100 % of control, the T/C (endpoint: mean survival time, dose: 12.5 mg/kg/injection, schedule: Q01DX009 (ip), vehicle: saline) was 100 % of control and the T/C (endpoint: mean survival time, dose: 25.0 mg/kg/injection, schedule: Q01DX009 (ip), vehicle: saline) was 96 % of control.
With CC1CC=CCC1/C=N\Nc1ccc([N+](=O)[O-])cc1[N+](=O)[O-] (stereo not drawn) the T/C [1] was 98 % of control, the T/C [2] was 94 % of control and the T/C [3] was 100 % of control.
In the case of O=c1[nH]c(/C=C/c2ccccc2)c([N+](=O)[O-])c(=O)[nH]1, the T/C [4] is reported as 95 % of control, the T/C [5] is reported as 90 % of control and the T/C [6] is reported as 90 % of control.
In the case of COC1=CC=C2[C@@H]3Cc4ccc(OC)c5c4[C@]2(CCN3CCO)C1O5 (stereo partly drawn), the T/C (endpoint: mean survival time, dose: 25.0 mg/kg/injection, schedule: Q04DX003 (ip), vehicle: DMSO) is reported as 94 % of control, the T/C (endpoint: mean survival time, dose: 50.0 mg/kg/injection, schedule: Q04DX003 (ip), vehicle: DMSO) is reported as 96 % of control and the T/C (endpoint: mean survival time, dose: 100.0 mg/kg/injection, schedule: Q04DX003 (ip), vehicle: DMSO) is reported as 94 % of control. The T/C (endpoint: mean survival time, dose: 200.0 mg/kg/injection, schedule: Q04DX003 (ip), vehicle: DMSO) was 91 % of control and the T/C (endpoint: mean survival time, dose: 400.0 mg/kg/injection, schedule: Q04DX003 (ip), vehicle: DMSO) was 105 % of control.
With N#Cc1cn(C2OC(CO)C3OC32)c2ncnc(NC(=O)c3ccccc3)c12 (stereo not drawn) the T/C (endpoint: mean survival time, dose: 25.0 mg/kg/injection, schedule: Q01DX005 (ip), vehicle: distilled water + Tween-80) was 103 % of control, the T/C (endpoint: mean survival time, dose: 50.0 mg/kg/injection, schedule: Q01DX005 (ip), vehicle: distilled water + Tween-80) was 104 % of control and the T/C (endpoint: mean survival time, dose: 100.0 mg/kg/injection, schedule: Q01DX005 (ip), vehicle: distilled water + Tween-80) was 114 % of control. The T/C (endpoint: mean survival time, dose: 200.0 mg/kg/injection, schedule: Q01DX005 (ip), vehicle: distilled water + Tween-80) was 110 % of control.
OCc1ccc(Cl)cc1 was tested, and the T/C [1] was 96 % of control, the T/C [2] was 97 % of control and the T/C [3] was 100 % of control.
In the case of CCCCCCCCN(c1ccc(I)cc1)S(=O)(=O)c1ccc(C)cc1, the T/C [1] is reported as 94 % of control and the T/C [2] is reported as 94 % of control.
With N=C(N)c1nn(C2OC(CO)C(O)C2O)c2nc[nH]c(=O)c12 (stereo not drawn) the T/C (endpoint: median survival time, dose: 3.12 mg/kg/injection, schedule: Q01DX005 (ip), vehicle: Klucel + Tween-80) was 122 % of control, the T/C (endpoint: median survival time, dose: 12.5 mg/kg/injection, schedule: Q01DX005 (ip), vehicle: Klucel + Tween-80) was 153 % of control and the T/C (endpoint: median survival time, dose: 25.0 mg/kg/injection, schedule: Q01DX005 (ip), vehicle: Klucel + Tween-80) was 120 % of control and 89 % of control.
Cc1ccc(P(=O)(O)O)c([N+](=O)[O-])c1 was tested, and the T/C (endpoint: mean survival time, dose: 50.0 mg/kg/injection, schedule: Q04DX003 (ip), vehicle: saline) was 105 % of control, the T/C [7] was 95 % of control and the T/C [8] was 105 % of control.
With Cc1ccc(S(=O)(=O)SC(F)(F)F)cc1 the T/C (endpoint: mean survival time, dose: 5.0 mg/kg/injection, schedule: Q01DX001 (ip), vehicle: saline) was 106 % of control and the T/C (endpoint: mean survival time, dose: 10.0 mg/kg/injection, schedule: Q01DX001 (ip), vehicle: saline) was 104 % of control.
Cc1cc(=O)n(C)c2c(C)cccc12 was tested, and the T/C [9] was 98 % of control, the T/C [10] was 92 % of control and the T/C [11] was 95 % of control.
With O/N=C/c1ccccc1 the T/C (endpoint: mean survival time, dose: 11.0 mg/kg/injection, schedule: Q01DX009 (ip), vehicle: saline with Tween-80) was 108 % of control, the T/C (endpoint: mean survival time, dose: 16.5 mg/kg/injection, schedule: Q01DX009 (ip), vehicle: saline with Tween-80) was 94 % of control and the T/C (endpoint: mean survival time, dose: 25.0 mg/kg/injection, schedule: Q01DX001 (ip), vehicle: saline) was 97 % of control. For the same compound, the T/C [12] was 97 % of control, the T/C (endpoint: mean survival time, dose: 37.5 mg/kg/injection, schedule: Q01DX009 (ip), vehicle: saline with Tween-80) was 95 % of control and the T/C (endpoint: mean survival time, dose: 50.0 mg/kg/injection, schedule: Q01DX001 (ip), vehicle: saline) was 97 % of control. The T/C [4] was 97 % of control and the T/C (endpoint: mean survival time, dose: 100.0 mg/kg/injection, schedule: Q01DX001 (ip), vehicle: saline) was 101 % of control.
In the case of COC(=O)c1ccc(C)c(NC2=NCCO2)c1, the T/C [13] is reported as 96 % of control, the T/C [14] is reported as 97 % of control and the T/C [12] is reported as 102 % of control. The T/C [15] was 105 % of control, the T/C [4] was 97 % of control and the T/C [5] was 97 % of control. For the same compound, the T/C [6] was 93 % of control.
For CCN(CC)C(=O)c1cc[n+](Cc2ccc(Cl)c(Cl)c2)cc1, the T/C [15] was 102 % of control, the T/C [9] was 105 % of control and the T/C [1] was 100 % of control. For the same compound, the T/C [2] was 102 % of control.
In the case of CCOC(=O)Cc1cnc(SC)[nH]c1=O, the T/C (endpoint: mean survival time, dose: 50.0 mg/kg/injection, schedule: Q04DX003 (ip), vehicle: Klucel (hydroxypropylcellulose) (HPC)) is reported as 111 % of control, the T/C (endpoint: mean survival time, dose: 100.0 mg/kg/injection, schedule: Q04DX003 (ip), vehicle: Klucel (hydroxypropylcellulose) (HPC)) is reported as 106 % of control and the T/C (endpoint: mean survival time, dose: 200.0 mg/kg/injection, schedule: Q04DX003 (ip), vehicle: Klucel (hydroxypropylcellulose) (HPC)) is reported as 106 % of control. The T/C (endpoint: mean survival time, dose: 600.0 mg/kg/injection, schedule: Q04DX003 (ip), vehicle: Klucel (hydroxypropylcellulose) (HPC)) was 100 % of control.
OCC1(O)OCC(O)C(F)C1O (stereo not drawn) was tested, and the T/C (endpoint: mean survival time, dose: 100.0 mg/kg/injection, schedule: Q01DX009 (ip), vehicle: saline) was 96 % of control, the T/C [7] was 88 % of control and the T/C (endpoint: mean survival time, dose: 200.0 mg/kg/injection, schedule: Q01DX009 (ip), vehicle: saline) was 96 % of control. For the same compound, the T/C [8] was 89 % of control, the T/C (endpoint: mean survival time, dose: 400.0 mg/kg/injection, schedule: Q01DX009 (ip), vehicle: saline) was 94 % of control and the T/C (endpoint: mean survival time, dose: 400.0 mg/kg/injection, schedule: Q04DX003 (ip), vehicle: saline) was 91 % of control.
In the case of O=C(C(=O)c1ccc(Cl)c(Cl)c1)c1ccc(Cl)c(Cl)c1, the T/C (endpoint: mean survival time, dose: 100.0 mg/kg/injection, schedule: Q01DX009 (ip), vehicle: Klucel (hydroxypropylcellulose) (HPC)) is reported as 90 % of control, the T/C (endpoint: mean survival time, dose: 200.0 mg/kg/injection, schedule: Q01DX009 (ip), vehicle: Klucel (hydroxypropylcellulose) (HPC)) is reported as 91 % of control and the T/C (endpoint: mean survival time, dose: 400.0 mg/kg/injection, schedule: Q01DX009 (ip), vehicle: Klucel (hydroxypropylcellulose) (HPC)) is reported as 96 % of control.
For CC(=O)NCCSSCCCCS(=O)O, the T/C (endpoint: median survival time, dose: 25.0 mg/kg/injection, schedule: Q01DX009 (ip), vehicle: suspension in saline) was 93 % of control, the T/C (endpoint: median survival time, dose: 50.0 mg/kg/injection, schedule: Q01DX009 (ip), vehicle: suspension in saline) was 100 % of control and the T/C (endpoint: median survival time, dose: 100.0 mg/kg/injection, schedule: Q01DX009 (ip), vehicle: suspension in saline) was 96 % of control. For the same compound, the T/C (endpoint: median survival time, dose: 200.0 mg/kg/injection, schedule: Q01DX009 (ip), vehicle: suspension in saline) was 100 % of control and the T/C (endpoint: median survival time, dose: 400.0 mg/kg/injection, schedule: Q01DX009 (ip), vehicle: suspension in saline) was 114 % of control.
CC(O)CC1CCCC(C)N1 (stereo not drawn) was tested, and the T/C (endpoint: mean survival time, dose: 50.0 mg/kg/injection, schedule: Q04DX003 (ip), vehicle: saline with Tween-80) was 90 % of control and 100 % of control, the T/C [4] was 101 % of control and the T/C (endpoint: mean survival time, dose: 100.0 mg/kg/injection, schedule: Q04DX002 (ip), vehicle: saline with Tween-80) was 100 % of control and 106 % of control. For the same compound, the T/C [1] was 100 % of control and 101 % of control, the T/C [5] was 101 % of control and the T/C (endpoint: mean survival time, dose: 200.0 mg/kg/injection, schedule: Q04DX002 (ip), vehicle: saline with Tween-80) was 98 % of control and 100 % of control. For the same compound, the T/C [2] was 93 % of control and 100 % of control.
For CC(C)CCCC(C)C1CCC2C3CCC4CC5OCC(O)CC5CC4(C)C3CCC12C (stereo not drawn), the T/C [9] was 96 % of control, the T/C [10] was 100 % of control and the T/C [11] was 96 % of control.
In the case of CC1=NN(c2ccccc2)C(=O)/C1=C/N(C)C, the T/C (endpoint: mean survival time, dose: 3.13 mg/kg/injection, schedule: Q01DX009 (ip), vehicle: saline with Tween-80) is reported as 103 % of control, the T/C [13] is reported as 97 % of control and the T/C (endpoint: mean survival time, dose: 6.25 mg/kg/injection, schedule: Q04DX003 (ip), vehicle: saline with Tween-80) is reported as 95 % of control. For the same compound, the T/C [14] was 100 % of control and the T/C (endpoint: mean survival time, dose: 12.5 mg/kg/injection, schedule: Q04DX003 (ip), vehicle: saline with Tween-80) was 90 % of control.
